Laboratory results published in patent US8722923B2, “Conjugates for treating neurodegenerative diseases and disorders” (Ramot at Tel-Aviv University Ltd., priority 2008, dated 2014).
Entries after “also recorded” stand apart in the source; their conditions may differ. Structures can show the parent of a compound that is named as a salt.

Experiments:
[1] = Hygroscopicity of acid addition salts; format: physicochemical; conditions: acid addition salts as isolated
Text: The hydrochloride salts of Compounds 6, 8a, 11, 13, 14, 16, 18 and 21 were identified as hygroscopic. […] The basis for this assumption was that the addition salt of an aromatic acid would be less hygroscopic than that of the corresponding hydrochloric acid addition salt. Thus, the butyl ester, Compound 20 was Boc-deprotected with 3 equivalents of benzenesulfonic acid in […].

MPTP acute model mice [2] = test: Experiment 3: tyrosine hydroxylase immunohistochemistry of striatum and substantia nigra, MPTP acute model; format: in vivo, C57/BL/6J mice; conditions: overall conclusion
Description: FIG. 13 presents a bar graph showing the effect of BL-1023* administration on the neuronal density in the stratium, as assessed from Tyrosine Hydroxylase staining. Mice were administered the following treatments: saline (control), MPTP+saline (MPTP), MPTP+L-DOPA 30 mg/kg (MPTP+L-DOPA), MPTP+L-DOPA 30 mg/kg+GABA 18.4 mg/kg (MPTP+L-DOPA+GABA), MPTP+BL1023* 48.4 mg/kg (denoted MPTP+1023 30) and MPTP+BL-1023* 24.2 mg/kg (denoted MPTP+BL1023 15). The MPTP neurotoxin was administered on day 0, with 4 IP injections (each injection contained 20 mg/kg, 5 ml/kg) in saline. The various treatments or saline were administered on day 7, 9, 11 and 13 (total of 4 treatments). Three mice, from each treatment group, and four mice from the control group, were sacrificed on day 15 and subjected to immunohystochemistry for tyrosine hydroxylase of the stratium according to the protocol described in the Examples section hereinbelow. The intensity of Tyrosine Hyroxylase (TH) staining, in the striatum of the treated mice is presented as the average of Intensity Optical Density (IOD) and SE obtained for the total stained area.
FIG. 15 presents a bar graph showing the effect of BL-1023* administration on the neuronal density in the substantia nigra, as assessed from Tyrosine Hydroxylase staining. […]

[3] = tested on: MPTP sub-acute model mice; test: Experiment 2: observed vitality signs (level of motion, fur appearance), MPTP sub-acute model; format: in vivo, C57/BL/6J mice; for Fur, observer 1: key: Split fur +; Shiny fur +++; for Fur, observer 2: key: Split fur +; Shiny fur +++; for Fur, observer 3: key: Split fur +; Shiny fur +++; for Fur, observer 4: key: Split fur +; Shiny fur +++; for Vitality, observer 1: key: slow motions +; normal motion +++; for Vitality, observer 2: key: slow motions +; normal motion +++; for Vitality, observer 3: key: slow motions +; normal motion +++; for Vitality, observer 4: key: slow motions +; normal motion +++
Text: FIG. […] 6 hereinabove. Six independent observers estimated the level of mice vitality by the level of motion of the mice (light purple, marked vitality) and fur appearance (dark purple). The results are an average of the observers' reports.

[4] = tested on: MPTP sub-acute model mice; test: Experiment 2: tyrosine hydroxylase immunostaining of striatum and substantia nigra, MPTP sub-acute model; format: in vivo, C57/BL/6J mice; conditions: GABA 18.4 mg/kg, L-DOPA 30 mg/kg + GABA 18.4 mg/kg, AN-490 81 mg/kg per os, days 29-30
Description: Shown are microphotograph of the striatum and substantia-nigra of mice receiving saline (FIG. 8A, Naive), MPTP+saline (FIG. 8B, MPTP) MPTP+GABA.HCl 18.4 mg/kg (FIG. 8C, MPTP+GABA), MPTP+L-DOPA 30 mg/kg (FIG. 8D, MPTP+DOPA), MPTP+L-DOPA 30 mg/kg+GABA 18.4 mg/kg (FIG. 8E, MPTP+Dopa+GABA) and MPTP+AN-490 81 mg/kg (FIG. 8F, MPTP+AN490). Paraffin-embedded horizontal sections of the stratium and substantia nigra were stained with hematoxylan and Tyrosine Hyroxylase antibodies. The magnification is ×100 and in the insert ×200.
Animals under deep anesthesia were perfused through the aorta with phosphate-buffered saline (PBS), followed by a cold fixative consisting of 4% paraformaldehyde, 0.35% glutaraldehyde and 0.2% picric acid in phosphate buffer. After perfusion, the brain were removed and fixed in 4% paraformaldehyde for 24 hours, washed with PBS, dehydrated in increasing alcohol concentrations and embedded in paraffin. Paraffin-embedded tissues were processed as described [Rephaeli et al. Int J Cancer. 2005 Aug. 20; 116:226-35]. The avidin-biotin nonspecific binding was prevented by a blocking kit according to the manufacturer's protocol (Vector, USA). The sections were further incubated at 4° C. overnight with the primary antibody mouse monoclonal tyrosine hydroxylase (Visionbiosystem, Newcastle, UK, diluted 1:50). The secondary antibody was biotin conjugated goat anti-mouse IgG (Santa Cruz). Slides were then stained with ABC peroxidase system, developed with diaminobenzidine (DAB), chromogene substrate (Vector Laboratories, Inc. The slides were examined using an Olympus BX52 light microscope and images were taken with Olympus DP50 digital camera system. Images were analyzed by the ImagePro Plus 5.1 software. At least 12 different fields in each experimental group were analyzed. The Mean density±SEM was calculated for the striatum and the mean cell number±SEM was calculated for the SN.

[5] = compared with other esters such as the ethyl or octyl esters; cited from earlier work
MPTP acute model mice [6] = test: Experiment 1: open field test, MPTP acute model (AN-490); format: in vivo, C57/BL/6J mice; conditions: for motility / motor activity in open field: MPTP treated mice, L-DOPA 25 mg/kg or AN-490 67.5 mg/kg by oral gavage, days 3, 6, 8, 16
Description: The MPTP neurotoxin was administered on day 0, with 4 IP injections (each injection contained 20 mg/kg, 5 ml/kg) in saline. The various treatments or saline were administered on days 0, 1, 2, 3, 6, 7, 13 and 16. Each group of mice (n=6) was subjected, on days 3, 6, 8 and 16, to the open field test, and the following parameters were scored: the distance moved (FIGS. 2A and 2B), velocity (FIGS. 2C and 2D), time spent immobile (FIGS. 2E and 2F) and time spent in a high level of mobility (FIGS. 2G and 2H; strong mobility) during a period of 20 minutes. FIGS. 2A, 2C, 2E and 2G present the data obtained for the control mice, mice treated with L-DOPA and mice treated with AN-490. FIGS. 2B, 2D, 2F and 2H present the data obtained for control mice or mice treated with MPTP, MPTP with L-DOPA and MPTP with AN-490.
Acute model: On day 1, C57/BL mice received 4× […] injections of 20 mg/kg MPTP-HCl (Sigma), dissolved in saline solution, at 2 hours intervals.
The open field test measures behavioral responses, locomotor activity, hyperactivity, and exploratory behaviors. Open field test is also used as a measure of anxiety. Mice tend to avoid brightly illuminated, novel, open spaces, so the open field environment acts as an anxiogenic stimulus and allows for measurement of anxiety-induced locomotor activity and exploratory behaviors. The apparatus for the open field test is a square (0.5×0.5 meter) made of white melamine. All activities were recorded by a video camera mounted above the open field and scored in real-time by a motion-recognition software package (Noldus, Holland) that detects and analyzes the movements of the animals. The video image of the open field arena was partitioned into equal-size squares zone. Total distance, average speed, rearing/elongation behavior, and time spent in various parts of the field (e.g. the border areas vs. mid-area) were measured. Testing was carried out in a temperature, noise and light controlled room.

[7] = MPTP sub-acute model, per os treatment
[8] = listed as Compound 21, tri-hydrochloride
[9] = MPTP+AN-490 67.5 mg/kg, compared to the other tested groups

## CCCCOC(=O)[C@@H](N)Cc1ccc(OC(=O)CCCN)c(OC(=O)CCCN)c1 (as salt: hydrochloride) [AN-490, Butyl-2-amino-3-(3,4-phenyl-di[4-aminobutanoate])propanoate tri-hydrochloride]
other
  melting point: 175 to 176 °C

## CCCCOC(=O)C(Cc1ccc(OC(=O)CCCN)c(OC(=O)CCCN)c1)NC(=O)CCCN (stereo not shown) [Compound 18]
[1]
  hygroscopicity: hygroscopic

## COC(=O)C(Cc1ccc(OC(=O)CCCN)c(OC(=O)CCCN)c1)NC(=O)CCCN.Cl (stereo not shown) [Compound 13]
other
  melting point: 87 °C
[1]
  hygroscopicity: hygroscopic

## COC(=O)[C@@H](N)Cc1ccc(O)c(O)c1.Cl [Compound 6, L-DOPA methyl ester hydrochloride]
[1]
  hygroscopicity: hygroscopic

## NCCCC(=O)O [GABA, 4-amino-butyric acid]
MPTP acute model mice [2]
  protection of TH positive cells: protect the TH positive cells
[3]; [7]
  Fur, observer 1: +++
  Fur, observer 3: +++
  Fur, observer 4: +++
  Vitality, observer 1: +++
  Vitality, observer 2: +++
  Vitality, observer 3: +++
  Vitality, observer 4: +++
[4]
  TH staining in the substantia nigra and striatum (IHC): protection or restoration of the normal morphology

## CCCCOC(=O)[C@@H](N)Cc1ccc(O)c(O)c1 [L-DOPA butyl ester]
[5]
  skin permeability: better skin permeability

## Butyl-2-amino-3-(3,4-phenyl-di[4-aminobutanoate])propanoate tri-benzenesulfonate salt [Compound 22]
[1]
  hygroscopicity: much less hygroscopic

## CCCCOC(=O)C(Cc1ccc(O)c(O)c1)NC(=O)CCCN (stereo not shown) (as salt: hydrochloride) [BL-1023*, Butyl-2-(4-Aminobutanamide)-3-(3,4-dihydroxyphenyl)propanoate hydrochloride]
other
  melting point: 77 °C

## CCCCOC(=O)[C@@H](N)Cc1ccc(OC(=O)CCCN)c(OC(=O)CCCN)c1 [AN-490, Butyl-2-amino-3-(3,4-phenyl-di[4-aminobutanoate])propanoate tri-hydrochloride]
[3]; [7]
  Fur, observer 1: +
  Fur, observer 2: +
  Vitality, observer 1: +++
  Vitality, observer 2: +++
  Vitality, observer 3: +++
  Vitality, observer 4: +++
[3]; MPTP+AN-490 81 mg/kg per os
  vitality signs (fur appearance): reduced vitality signs
[1]
  hygroscopicity: hygroscopic
MPTP acute model mice [6]; [8]
  motility / motor activity in open field: significant increase in motility
MPTP acute model mice [6]; tri-hydrochloride
  motility / motor activity in open field: continuous increase in motor activity
MPTP acute model mice [6]; [9]
  strong mobility in open field: highly mobile
  time spent immobile in open field: immobile for a short time
  velocity in open field: highest velocity
[4]; [8]
  TH staining in the substantia nigra and striatum (IHC): enhanced neuronal density
[4]; tri-hydrochloride
  TH staining in the substantia nigra and striatum (IHC): protection or restoration of the normal morphology; also recorded: TH protective activity

## COC(=O)C(Cc1ccc(O)c(O)c1)NC(=O)CCCN.Cl (stereo not shown) [Compound 8a, methyl-2-(4-aminobutanamide)-3-(3,4-dihydroxyphenyl)propanoate hydrochloride]
[1]
  hygroscopicity: hygroscopic

## CCCCOC(=O)C(N)Cc1ccc(O)c(O)c1.Cl (stereo not shown) [Compound 14, Butyl-2-amino-3-(3,4-dihydroxyphenyl)propanoate hydrochloride]
[1]
  hygroscopicity: hygroscopic

## COC(=O)C(N)Cc1ccc(OC(=O)CCCN)c(OC(=O)CCCN)c1.Cl (stereo not shown) [Compound 11, methyl-2-amino-3-(3,4-phenyl-di-[4-aminobutanoate])propanoate-trihydrochloride]
other
  melting point: 185 °C
[1]
  hygroscopicity: hygroscopic

## CCCCOC(=O)C(Cc1ccc(OC(=O)CCCN)c(OC(=O)CCCN)c1)NC(=O)CCCN (stereo not shown) (as salt: hydrochloride) [Compound 18]
other
  melting point: 74 to 75 °C
